Assays:
[1] = tested on: A549-ACE2 infected with SARS-CoV-2; experiment: cell count relative to DMSO; higher = less toxic; settings: 24 h
[2] = tested on: Caco-2; experiment: cell viability relative to DMSO; higher = less toxic; settings: 72 h
[3] = tested on: Calu-3; experiment: as above; settings: 72 h
[4] = tested on: HepG2; experiment: as above; settings: 72 h
[5] = tested on: U2OS; experiment: as above; settings: 72 h
[6] = tested on: Vero E6; experiment: as above; settings: 72 h
[7] = tested on: A549-ACE2 infected with SARS-CoV-2; experiment: SARS-CoV-2 infection rate relative to DMSO; higher = more infection; settings: 24 h
[8] = tested on: A549-ACE2; experiment: phospholipidosis EC50; higher = less potent phospholipidosis inducer
[9] = tested on: A549-ACE2; experiment: drug-induced phospholipidosis relative to tamoxifen; higher = more phospholipidosis
[10] = tested on: A549-ACE2 infected with SARS-CoV-2; experiment: morphology score (similarity to uninfected cells); higher = more like uninfected cells; settings: 24 h
[11] = tested on: Caco-2; experiment: relative viability EC50 (midpoint between 100% and the lowest measured viability); higher = less toxic; settings: 72 h
[12] = tested on: Calu-3; experiment: as above; settings: 72 h
[13] = tested on: HepG2; experiment: as above; settings: 72 h
[14] = tested on: Caco-2; experiment: drug sensitivity score (DSS) for viability; higher = more toxic; extreme values may be limits of the assay; settings: 72 h
[15] = tested on: Calu-3; experiment: as above; settings: 72 h
[16] = tested on: HepG2; experiment: as above; settings: 72 h
[17] = tested on: U2OS; experiment: as above; settings: 72 h
[18] = tested on: Vero E6; experiment: as above; settings: 72 h
[19] = tested on: U2OS; experiment: relative viability EC50 (midpoint between 100% and the lowest measured viability); higher = less toxic; settings: 72 h
[20] = tested on: Vero E6; experiment: as above; settings: 72 h

CN(C)CCOc1ccc(/C(=C(/CCCl)c2ccccc2)c2ccccc2)cc1 [toremifene]
Settings | SARS-CoV-2 infection rate [%] | cell count [%] | cell viability [%] | morphology score | phospholipidosis EC50 [µM]
[1], 0.1 µM | – | 100 | – | – | –
[1], 0.3 µM | – | 107 | – | – | –
[1], 1 µM | – | 107 | – | – | –
[1], 3 µM | – | 127 | – | – | –
[2], 1 nM | – | – | 100 | – | –
[2], 10 nM | – | – | 98.1 | – | –
[2], 100 nM | – | – | 105 | – | –
[2], 1000 nM | – | – | 92.3 | – | –
[2], 10000 nM | – | – | 39.8 | – | –
[3], 1 nM | – | – | 90.6 | – | –
[3], 10 nM | – | – | 106 | – | –
[3], 100 nM | – | – | 104 | – | –
[3], 1000 nM | – | – | 93.1 | – | –
[3], 10000 nM | – | – | 15.8 | – | –
[4], 1 nM | – | – | 105 | – | –
[4], 10 nM | – | – | 82.5 | – | –
[4], 100 nM | – | – | 104 | – | –
[4], 1000 nM | – | – | 103 | – | –
[4], 10000 nM | – | – | 29.9 | – | –
[5], 1 nM | – | – | 97.6 | – | –
[5], 10 nM | – | – | 94.9 | – | –
[5], 100 nM | – | – | 99.4 | – | –
[5], 1000 nM | – | – | 91.3 | – | –
[5], 10000 nM | – | – | 66.7 | – | –
[6], 1 nM | – | – | 98.4 | – | –
[6], 10 nM | – | – | 101 | – | –
[6], 100 nM | – | – | 90.4 | – | –
[6], 1000 nM | – | – | 95.3 | – | –
[6], 10000 nM | – | – | 53.6 | – | –
[7], 0.1 µM | 105 | – | – | – | –
[7], 0.3 µM | 88 | – | – | – | –
[7], 1 µM | 89 | – | – | – | –
[7], 3 µM | 44 | – | – | – | –
[8], 24 h | – | – | – | – | 15
[8], 48 h | – | – | – | – | 1.48
[8], 72 h | – | – | – | – | 1.65
[10], 0.1 µM | – | – | – | -0.1 | –
[10], 0.3 µM | – | – | – | 0.28 | –
[10], 1 µM | – | – | – | 0.36 | –
[10], 3 µM | – | – | – | 0.76 | –

drug-induced phospholipidosis [%], [9]
Settings | 0.3 µM | 0.833333 µM | 3.33333 µM | 6.66667 µM | 10 µM | 30 µM
24 h | 8.6 | 44.5 | 103 | 115 | 116 | 416
48 h | 7.64 | 34.2 | 102 | 117 | 121 | –
72 h | 6.92 | 27.5 | 102 | 112 | 125 | –

Settings | drug sensitivity score | relative viability EC50 [µM]
[11] | – | 2.13
[12] | – | 2.5
[13] | – | 3.4
[14] | 4.6 | –
[15] | 5.7 | –
[16] | 3.6 | –
[17] | 2.8 | –
[18] | 3.2 | –

CC(C)COc1ccc(CNC(=O)N(Cc2ccc(F)cc2)C2CCN(C)CC2)cc1 [pimavanserin]
Settings | SARS-CoV-2 infection rate, [7] [%] | cell count, [1] [%] | cell viability, [2] [%] | cell viability, [3] [%] | cell viability, [4] [%] | cell viability, [5] [%] | cell viability, [6] [%] | morphology score, [10]
1 nM | – | – | 105 | 100 | 102 | 99.4 | 101 | –
10 nM | – | – | 95.7 | 97 | 104 | 99.2 | 101 | –
100 nM | – | – | 105 | 95.1 | 104 | 92.2 | 108 | –
0.3 µM | 100 | 101 | – | – | – | – | – | -0.07
1000 nM | – | – | 110 | 95.2 | 103 | 99.2 | 99.4 | –
10000 nM | – | – | 85.7 | 86.2 | 86.2 | 92 | 98.4 | –

[9], 0.3 µM
Settings | drug-induced phospholipidosis [%]
24 h | 4.68
48 h | 2.24
72 h | 1.32

Settings | drug sensitivity score | relative viability EC50 [µM]
[11] | – | > 10
[12] | – | > 10
[13] | – | > 10
[14] | 0.1 | –
[15] | 0.1 | –
[16] | 0.1 | –
[17] | 0 | –
[18] | 0 | –
[19] | – | > 10
[20] | – | > 10

CCCC[C@@H](C=O)NC(=O)[C@H](CC(C)C)NC(=O)OCc1ccccc1 [calpeptin]
Settings | SARS-CoV-2 infection rate, [7] [%] | cell count, [1] [%] | cell viability, [2] [%] | cell viability, [4] [%] | cell viability, [5] [%] | cell viability, [6] [%] | morphology score, [10]
1 nM | – | – | 96.8 | 99.8 | 104 | 97.5 | –
10 nM | – | – | 97 | 95.1 | 98.8 | 99.6 | –
100 nM | – | – | 100 | 98.2 | 103 | 102 | –
0.3 µM | 56 | 114 | – | – | – | – | 0.69
1000 nM | – | – | 94.5 | 98.3 | 95.8 | 98 | –
3 µM | 29 | 120 | – | – | – | – | 0.91
10 µM | 13 | 123 | – | – | – | – | 0.9
10000 nM | – | – | 97.7 | 92.2 | 96.4 | 92.1 | –
30 µM | 8 | 118 | – | – | – | – | 0.77

drug-induced phospholipidosis [%], [9]
Settings | 0.3 µM | 0.833333 µM | 3.33333 µM | 6.66667 µM | 10 µM | 30 µM
24 h | 5.73 | 6.24 | 10.6 | 21.3 | 26.2 | 64.5
48 h | 3.11 | 2.48 | 7.49 | 16.9 | 26.6 | 77.2
72 h | 4.92 | 2.16 | 4.48 | 13.5 | 24.6 | 87.8

Settings | drug sensitivity score | relative viability EC50 [µM]
[11] | – | > 10
[13] | – | > 10
[14] | 0 | –
[16] | 0 | –
[17] | 0 | –
[18] | 0 | –
[19] | – | > 10
[20] | – | > 10

— the supplement of paper PMC13380429
